# In patent US11311613B2, “Development of agonist epitopes of the human papillomavirus” (priority 2016, dated 2022):
# Legend:
# [1] = test system: CaSki cervical carcinoma cell line (HPV16 E6 and E7 positive HLA-A2 positive); assay: Lysis of CaSki tumor cells by peptide-specific CTLs; assay type: cell-based, human; design: key to Lysis: + denotes a greater level than the native epitope; = denotes the same level as the native epitope; − denotes a lower level than the native epitope; settings: for % specific lysis (SD), CaSki (HLA-A2+ HPV E6+ and E7+): CTLs at IVS5, effector-to-target ratio 25:1; for lysis of CaSki cervical carcinoma cells (in words): compared to T cells generated with the native epitope counterpart; for Lysis: level compared with the native epitope
# Excerpt: (§1) HPV-specific T cells were generated using infection of dendritic cells (DCs) with Ad-HPV followed by stimulation of the T cells with each agonist and native peptide. In particular, DCs were infected with Ad5 HPV at 20,000 MOI. Infected DCs were used to generate specific CTLs using autologous PBMC. Autologous DCs were used as APCs for three in vitro stimulations (IVS). Autologous peptide-pulsed B cells were used to re-stimulate antigen-specific CTLs for two additional IVS. CTLs were used at IVS5.
# (§2) Results are expressed in % specific lysis (SD). Effector-to-target ratio used was 25:1. CTLs were established from a normal HLA-A2 donor. CaSki is a cervical carcinoma cell line (HPV16 E6 and E7 positive HLA-A2 positive). ASPC-1 is a pancreatic cancer cell line (HPV16 E6 and E7 negative HLA-A2 negative).
# [2] = test system: ASPC-1 pancreatic cancer cell line (HPV16 E6 and E7 negative HLA-A2 negative); assay: Lysis of ASPC-1 control cells by peptide-specific CTLs; assay type: cell-based, human; settings: CTLs at IVS5, effector-to-target ratio 25:1; for % specific lysis (SD), ASPC-1 (HLA-A2neg HPV E6neg and E7neg): Table 4; for % specific lysis (SD), ASPC-1: Table 5
# Excerpt: as §1, §2
# as §2, with “HN-4 and HN-12 cells are head and neck squamous” for “CaSki is a cervical”, “lines (HLA-A2” for “line (HPV16 E6 and E7 positive HLA-A2”
# [3] = test system: CTL (T cells); assay: IFN-γ production by CTL stimulated by autologous B cells pulsed with corresponding peptide; assay type: cell-based, human; design: key to IFN-γ: + denotes a greater level than the native epitope; = denotes the same level as the native epitope; − denotes a lower level than the native epitope; settings: for interferon production (in words): T cells stimulated by peptide-pulsed autologous B cells
# Excerpt: Autologous B cells were pulsed with each native and agonist E6 peptides to stimulate production of interferon by T cells.
# Autologous B cells were pulsed with each native and agonist E7 peptides to stimulate production of interferon by T cells.
# [4] = biological target: T1, HLA-A2 molecules (Homo sapiens, UniProt P04439, D140Y/D185E/D98H/E176V/E277Q/G131W/G231S/I119V/I121R/I166T/I218V/L300P/L318F/N151K/N90K/P208A/P217A/Q86G/Q94H/R138H/R169H/T345S); assay: T2A2 binding of HPV-16 E6/E7 peptides to HLA-A2; design: T2A2 Binding: unit not given here; settings: for T2A2 Binding: binding to HLA-A2
# T1 construct: endogenous in cells; host or cells: T2A2 cells (T2 cell line expressing HLA-A2; only the column head names it)
# [5] = test system: HN-12 head and neck squamous carcinoma cell line (HLA-A2 positive); assay: Lysis of HN-12 cells by peptide-specific CTLs; assay type: cell-based, human; settings: for % specific lysis (SD), HN-12: CTLs at IVS5, effector-to-target ratio 25:1; for lysis of HN-12 (in words): compared to native counterparts
# Excerpt: as §1
# as §2, with “HN-4 and HN-12 cells are head and neck squamous” for “CaSki is a cervical”, “lines (HLA-A2” for “line (HPV16 E6 and E7 positive HLA-A2”
# [6] = test system: HN-4 head and neck squamous carcinoma cell line (HLA-A2 positive); assay: Lysis of HN-4 cells by peptide-specific CTLs; assay type: cell-based, human; settings: for % specific lysis (SD), HN-4: CTLs at IVS5, effector-to-target ratio 25:1; for lysis of HN-4 (in words): compared to native counterparts
# Excerpt: as §1
# as §2, with “HN-4 and HN-12 cells are head and neck squamous” for “CaSki is a cervical”, “lines (HLA-A2” for “line (HPV16 E6 and E7 positive HLA-A2”
# [7] = test system: HPV-specific T cell lines; assay: IFN-γ production by HPV-specific T cell lines stimulated with Ad5-infected human dendritic cells; assay type: cell-based; settings: for activation of T cells directed against the epitope (in words): human DCs infected with Ad-5[E1,E2b^neg]HPV
# Protocol: Human DC (6 day culture in IL-4 and GM-CSF) were infected with Ad5 [E1,E2b]-HPV vector and Ad5 [E1,E2b]-Null at 1×10^5/well (24-well plate) in 0.5 ml of AIM-V. Ad5 vectors were used at 20,000 MOI for 1 hour and then 1.5 ml of AIM-V were added to each well. Infected DCs were incubated for 48 hours and then washed and used for stimulation of human antigen-specific T cells. Results are expressed in pg of IFN-γ per 5×10^5 T cells/ml. DC only=<0.73 pg/ml.
# [8] = CTL line stimulated by autologous B cells pulsed with corresponding HPV-16 E6 peptide
# [9] = E6 CTL line, autologous B cells with NO peptide
# [10] = level compared with the native epitope
# [11] = DCs infected with Ad5 [E1,E2b]-HPV (20,000 MOI)
# [12] = DCs infected with Ad5 [E1,E2b]-Null (20,000 MOI)
# [13] = CTL line stimulated by autologous B cells pulsed with corresponding HPV-16 E7 peptide
# [14] = E7 CTL line, autologous B cells with NO peptide
Sequence,"% specific lysis (SD), CaSki (HLA-A2+ HPV E6+ and E7+) [1]","% specific lysis (SD), ASPC-1 (HLA-A2neg HPV E6neg and E7neg) [2]","IFN-γ [3, 8] [pg/mL]","IFN-γ [3, 9] [pg/mL]",T2A2 Binding [4],"% specific lysis (SD), HN-12 [5]",lysis of HN-12 (in words) [5],"% specific lysis (SD), HN-4 [6]",lysis of HN-4 (in words) [6],lysis of CaSki cervical carcinoma cells (in words) [1],Lysis [1],"% specific lysis (SD), ASPC-1 [2]","IFN-γ [7, 11]","IFN-γ [7, 12]",IFN-γ ([7]; DCs only (uninfected)),IFN-γ ([7]; No DCs),activation of T cells directed against the epitope (in words) [7],interferon production (in words) [3],"IFN-γ [3, 13] [pg/mL]","IFN-γ [3, 14] [pg/mL]",further results
"KISEYRHYC [E6-2, reference compound]",45.1 (2.8) %,0.5 (0.7) %,455,<15.6,,,,,,,,,,,,,,,,,
QLYNKPLCDV [E6-A3],49.1 (11.9) %,0.3 (0.9) %,653,<15.6,"1,280",38.4 (7.5) %,more lysis,30.6 (5.3) %,more lysis,Enhanced lysis,+,0.5 (0.8) %,452 pg of IFN-γ per 5×10^5 T cells/ml,0.78 pg of IFN-γ per 5×10^5 T cells/ml,8.06 pg of IFN-γ per 5×10^5 T cells/ml,0.9 pg of IFN-γ per 5×10^5 T cells/ml,able to activate,,,,"A2 Binding [4, 10]: +"
KISEYRHYV [E6-A2],24.2 (1.2) %,0.2 (0.5) %,172,<15.6,877,,,,,,−,,,,,,,produced more interferon than the agonist counterpart,,,"IFN-γ [3, 10]: −"
"YMLDLQPET [E7-1, reference compound]",39.8 (1.7) %,0.4 (0.3) %,,,"1,105",,,,,,,,,,,,,,247,155.6,
RTLEDLLMGV [E7-A3],54.5 (7.3) %,0.6 (0.1) %,,,"1,263",41.9 (2.9) %,more lysis,40.2 (1.8) %,more lysis,Enhanced lysis,+,0.6 (0.7) %,931 pg of IFN-γ per 5×10^5 T cells/ml,<0.73 pg of IFN-γ per 5×10^5 T cells/ml,<0.73 pg of IFN-γ per 5×10^5 T cells/ml,<0.73 pg of IFN-γ per 5×10^5 T cells/ml,able to activate,best interferon production,840,<15.6,HLA-A2 binding (in words) [4]: strongest
"RTLEDLLMGT [E7-3, reference compound]",49.6 (8.7) %,0.5 (0.1) %,,,,34.6 (3.9) %,,25.8 (3.5) %,,,,1.1 (0.7) %,560 pg of IFN-γ per 5×10^5 T cells/ml,70.8 pg of IFN-γ per 5×10^5 T cells/ml,4.24 pg of IFN-γ per 5×10^5 T cells/ml,<0.73 pg of IFN-γ per 5×10^5 T cells/ml,,,338,<15.6,
